Legend:
[1] = target: T1, IncC1 (Escherichia coli, UniProt P07673); assay: velocity sedimentation (analytical ultracentrifugation), dimer formation; type: binding; settings: read-out: Kapp
T1 construct: gene incC; full-length 364 aa, His6-tagged from modified pET28a (pGBT342), expressed in E. coli BL21, nickel-agarose; thrombin cleavage of tag described; monomer 40 kDa, dimer 80 kDa with ATP
T1 sequence (P07673 1-364): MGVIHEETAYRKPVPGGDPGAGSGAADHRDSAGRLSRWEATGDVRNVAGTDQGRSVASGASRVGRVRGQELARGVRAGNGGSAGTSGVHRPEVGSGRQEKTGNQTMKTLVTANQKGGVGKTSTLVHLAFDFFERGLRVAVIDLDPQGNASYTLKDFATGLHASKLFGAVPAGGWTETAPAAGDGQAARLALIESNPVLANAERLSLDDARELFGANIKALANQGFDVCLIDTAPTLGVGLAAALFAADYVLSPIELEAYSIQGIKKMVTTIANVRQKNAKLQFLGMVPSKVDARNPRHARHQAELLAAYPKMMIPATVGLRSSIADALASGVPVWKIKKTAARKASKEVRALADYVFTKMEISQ

[2] = target: T2, IncC2 (Escherichia coli, UniProt P07673); assay: glutaraldehyde cross-linking with the IncC1 N-terminal domain; settings: 2 mM ADP, 10 mM MgCl2, 25 mM phosphate pH 7.5; nucleotide-dependent binding of NTD to IncC2
T2 construct: gene incC; short form 259 aa (IncC1 without residues 1-105), His6-tagged from modified pET28a (pGBT343), expressed in E. coli BL21, nickel-agarose; thrombin cleavage of tag described
T2 sequence (P07673 106-364): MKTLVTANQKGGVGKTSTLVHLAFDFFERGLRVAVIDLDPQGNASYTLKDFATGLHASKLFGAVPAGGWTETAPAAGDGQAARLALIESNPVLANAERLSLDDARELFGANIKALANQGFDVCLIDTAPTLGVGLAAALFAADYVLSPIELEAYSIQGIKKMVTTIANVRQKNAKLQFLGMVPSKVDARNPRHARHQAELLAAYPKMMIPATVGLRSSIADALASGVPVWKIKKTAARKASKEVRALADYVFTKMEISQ

[3] = target: T3, IncC2 (259 aa), short ParA protein made from the second translational start of incC of plasmid RK2 (plasmid RK2 (IncP-1), UniProt P07673 106-364); assay: cross-linking; glutaraldehyde 0-0.1%, with 2 mM ATP; 5 μg of each protein in 50 μl, 10 mM MgCl2, 25 mM phosphate buffer pH 7.5; 30 min 37 °C, then 30 min 30 °C with glutaraldehyde; SDS-PAGE, Western blot with anti-IncC; settings: both partners purified
T3 construct: IncC2, the product of the second translational start of incC of plasmid RK2, 259 aa; it lacks the N-terminal domain (amino acids 1-105) of IncC1; numbers count on IncC1; also called His6-IncC2; source: E. coli BL21 (printed: C600 BL21), modified pET28a vector, purified (nickel-agarose)
T3 sequence (looked up): T2 sequence (P07673 106-364)

[4] = target: the molecule itself; assay: AUC; velocity sedimentation, 30 μM IncC1 with varying ATP concentrations, with magnesium; 50 mM sodium phosphate pH 8.0, 100 mM NaCl, 40,000 rpm, 4 °C

## Nc1ncnc2c1ncn2[C@@H]1O[C@H](COP(=O)(O)OP(=O)(O)O)[C@@H](O)[C@H]1O [ADP]
[1]
  Kd: 54 µM
[2]
  glutaraldehyde cross-linking with the IncC1 N-terminal domain: In the presence of either ATP or ADP, the NTD was found to interact with IncC2

## Nc1ncnc2c1ncn2[C@@H]1O[C@H](COP(=O)(O)OP(=O)(O)OP(=O)(O)O)[C@@H](O)[C@H]1O [ATP]
[1]
  Kd: 7.7 µM

B1: N-terminal domain of IncC1 (amino acids 1-105) (domain or fragment, plasmid RK2 (IncP-1), UniProt P07673 1-105, looked up)
chain: MGVIHEETAYRKPVPGGDPGAGSGAADHRDSAGRLSRWEATGDVRNVAGTDQGRSVASGASRVGRVRGQELARGVRAGNGGSAGTSGVHRPEVGSGRQEKTGNQT
notes: N-terminal domain of IncC1 of plasmid RK2, amino acids 1-105, 11 kDa; also called NTD; IncC1 NTD; source: E. coli, expressed from pSMB315 (pGBT340 with incC1-NTD), purified
[3]
  binding result: binds

B2: IncC1 (364 aa), long ParA protein encoded by incC of broad-host-range plasmid RK2 (natural protein, plasmid RK2 (IncP-1), UniProt P07673 1-364, looked up)
chain: T1 sequence (P07673 1-364)
notes: IncC1, the product of the first translational start of incC (parA) of IncP-1 plasmid RK2, 364 aa; also called His6-IncC1; His-IncC1; source: E. coli BL21 (printed: C600 BL21), modified pET28a vector, purified (nickel-agarose)
[4]
  stoichiometry N: 2

From publication PMC2666795, “Bacterial Genome Partitioning: N-Terminal Domain of IncC Protein Encoded by Broad-Host-Range Plasmid RK2 Modulates Oligomerisation and DNA Binding” (Journal of Molecular Biology, 2009)
